Tests used:
Assay in all cases: relative viability (nuclei count vs DMSO), 5 days (fraction); higher = more cells survive
Pifithrin_alpha = compound: CC1=CC=C(C=C1)C(=O)CN2C3=C(CCCC3)SC2=N [Pifithrin_alpha]
Summary of the method: (§1)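 Following overnight incubation at 37 °C, lung cancer cell lines in 1536-well plates were pinned with five library-drug doses (not always all listed) in √10 steps on vehicle-anchored plates. The cells then spent 5 days without medium change before a combined fix, permeabilisation and Hoechst stain, 4× imaging and MetaXpress nuclear counts. Viability is the treated-to-vehicle ratio of nuclei, taken as the median across plates. Only plates with control CV below 25% and at least one doubling passed.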

Axitinib = compound: CNC(=O)c1ccccc1Sc1ccc2c(/C=C/c3ccccn3)n[nH]c2c1 [Axitinib]
Summary of the method: as §1

Bemcentinib = compound: Nc1nc(Nc2ccc3c(c2)CC[C@@H](N2CCCC2)CC3)nn1-c1cc2c(nn1)-c1ccccc1CCC2 [Bemcentinib]
Summary of the method: as §1

Axitinib + Crizotinib = compound: CNC(=O)c1ccccc1Sc1ccc2c(/C=C/c3ccccn3)n[nH]c2c1 [Axitinib] + C[C@@H](Oc1cc(-c2cnn(C3CCNCC3)c2)cnc1N)c1c(Cl)ccc(F)c1Cl [Crizotinib] (partner 1 µM)
Summary of the method: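 Values are medians from duplicate plates. Each reflects relative viability, defined as the nuclei count of treated wells over that of vehicle wells. Lung cancer cell lines in 1536-well plates were pin-tool dosed one day after seeding with one drug alone or with a fixed anchor-drug dose plus five library-drug doses (not always all listed) in √10 steps, then fixed, stained and imaged at 4× after 5 days.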

Cell Line | relative viability (Pifithrin_alpha; 1 µM) | relative viability (Pifithrin_alpha; 3.162 µM) | relative viability (Pifithrin_alpha; 10 µM) | relative viability (Pifithrin_alpha; 31.62 µM) | relative viability (Pifithrin_alpha; 100 µM) | relative viability (Axitinib; 0.005 µM) | relative viability (Axitinib; 0.01581 µM) | relative viability (Axitinib; 0.05 µM) | relative viability (Axitinib; 0.1581 µM) | relative viability (Axitinib; 0.5 µM) | relative viability (Bemcentinib; 0.04 µM) | relative viability (Bemcentinib; 0.1265 µM) | relative viability (Bemcentinib; 0.4 µM) | relative viability (Bemcentinib; 1.265 µM) | relative viability (Bemcentinib; 4 µM) | relative viability (Axitinib + Crizotinib; first compound 0.005 µM) | relative viability (Axitinib + Crizotinib; first compound 0.01581 µM) | relative viability (Axitinib + Crizotinib; first compound 0.05 µM) | relative viability (Axitinib + Crizotinib; first compound 0.1581 µM) | relative viability (Axitinib + Crizotinib; first compound 0.5 µM)
NCI-H838 | 0.856 | 0.807 | 0.854 | 0.735 | 0.643 | 0.992 | 0.944 | 1.01 | 0.933 | 1.03 | 0.946 | 1.08 | 1 | 1.02 | 1.03 | 0.852 | 0.945 | 0.874 | 0.886 | 0.953
NCI-H1299 | 0.997 | 1.06 | 1.02 | 0.812 | 1.02 | 1.04 | 1 | 1.05 | 1 | 1.08 | 1.02 | 1.02 | 1.05 | 0.994 | 1.05 | 0.997 | 0.947 | 0.986 | 1 | 1.04
NCI-H1355 | 0.849 | 0.808 | 0.645 | 0.565 | 0.713 | 0.945 | 1.01 | 1.05 | 0.968 | 0.901 | 0.992 | 1.08 | 1.09 | 0.974 | 1.06 | 1.13 | 1.06 | 1.1 | 0.948 | 1.29
NCI-H1437 | 1.02 | 1.05 | 0.953 | 0.827 | 0.793 | 1.05 | 0.991 | 0.961 | 0.983 | 1.01 | 0.925 | 1.01 | 1.03 | 0.965 | 0.969 | 1.07 | 0.927 | 0.863 | 0.934 | 0.93
NCI-H1563 | 0.999 | 0.996 | 0.981 | 0.957 | 0.895 | 0.999 | 0.887 | 0.973 | 0.924 | 0.891 | 0.993 | 0.961 | 0.971 | 1.14 | 1.05 | 0.957 | 0.791 | 0.877 | 0.833 | 0.907
NCI-H1650 | 0.889 | 0.811 | 0.787 | 0.607 | 0.813 | 1.07 | 0.805 | 1.05 | 0.822 | 1.15 | 0.783 | 1.01 | 0.974 | 0.978 | 0.861 | 0.979 | 0.949 | 1.04 | 0.947 | 1.13
NCI-H1651 | 1.03 | 0.998 | 0.944 | 0.871 | 0.944 | 0.973 | 0.89 | 0.963 | 0.951 | 1 | 1.04 | 1.06 | 1.08 | 1.01 | 1.01 | 0.904 | 0.858 | 0.707 | 0.842 | 0.861
NCI-H1666 | 1.01 | 0.909 | 0.837 | 0.795 | 0.776 | 1.06 | 0.965 | 0.965 | 1 | 0.977 | 0.902 | 1.34 | 1.03 | 1.06 | 0.998 | 1.29 | 0.97 | 1.12 | 0.931 | 1.14
NCI-H1703 | 0.835 | 0.945 | 0.908 | 0.902 | 0.879 | 0.846 | 0.48 | 0.266 | 0.216 | 0.238 | 0.664 | 0.966 | 0.906 | 0.979 | 0.877 | 0.777 | 0.27 | 0.158 | 0.136 | 0.237
NCI-H1734 | 0.885 | 0.99 | 0.915 | 0.751 | 0.937 | 0.998 | 0.951 | 1.03 | 0.9 | 1.03 | 0.91 | 1.01 | 0.982 | 0.996 | 1.08 | 0.683 | 0.765 | 0.679 | 0.758 | 0.868
NCI-H1755 | 0.919 | 0.964 | 0.882 | 0.841 | 1.05 | 1.02 | 1.01 | 1.05 | 0.992 | 0.997 | 1.06 | 1.05 | 1.02 | 1.05 | 1.08 | 0.955 | 0.891 | 0.872 | 0.863 | 0.921
NCI-H1792 | 0.725 | 0.938 | 0.731 | 0.621 | 0.886 | 0.965 | 0.814 | 0.855 | 0.935 | 0.7 | 0.877 | 1.12 | 1.08 | 0.841 | 0.85 | 1.02 | 0.988 | 0.987 | 0.962 | 0.955
NCI-H1915 | 0.887 | 1.03 | 0.737 | – | 1.08 | 1 | 1.07 | 0.982 | 0.99 | 0.999 | 1.01 | 1.1 | 1.05 | 0.947 | 0.958 | 0.905 | 0.899 | 0.908 | 0.883 | 0.957

Source: the supplement of paper PMC10307832
